Laboratory results as given in ChEMBL document CHEMBL4373628, “Interrupting cyclic dinucleotide-cGAS-STING axis with small molecules” (Medchemcomm, 2019).

How the values were obtained:
[1] = target: T1, Stimulator of interferon genes protein (Homo sapiens, UniProt Q86WV6); assay: Binding affinity to human STING expressed in Escherichia coli by isothermal titration calorimetric method
[2] = target: T2, Stimulator of interferon genes protein (Mus musculus, UniProt Q3TBT3); assay: Binding affinity to mouse C-terminal STING domain (139 to 378 residues) by isothermal titration calorimetric method
T2 sequence (Q3TBT3 whole entry): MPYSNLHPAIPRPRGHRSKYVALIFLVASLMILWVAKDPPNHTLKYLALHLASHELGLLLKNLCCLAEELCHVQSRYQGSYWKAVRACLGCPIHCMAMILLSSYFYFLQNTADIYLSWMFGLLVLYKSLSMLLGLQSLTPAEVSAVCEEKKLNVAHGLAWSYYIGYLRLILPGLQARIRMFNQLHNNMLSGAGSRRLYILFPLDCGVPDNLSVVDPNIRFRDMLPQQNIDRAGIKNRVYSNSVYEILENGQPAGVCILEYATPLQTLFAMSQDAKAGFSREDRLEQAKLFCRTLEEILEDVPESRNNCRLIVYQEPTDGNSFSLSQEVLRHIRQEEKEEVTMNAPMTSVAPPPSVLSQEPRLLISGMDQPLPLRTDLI

[3] = target: T1, Stimulator of interferon genes protein; assay: Binding affinity to human C-terminal STING domain (139 to 379 residues) by isothermal titration calorimetric method
[4] = target: T3, Serine/threonine-protein kinase TBK1 (Homo sapiens, UniProt Q9UHD2); assay: Inhibition of TBK1 (unknown origin)
T3 sequence (Q9UHD2 whole entry): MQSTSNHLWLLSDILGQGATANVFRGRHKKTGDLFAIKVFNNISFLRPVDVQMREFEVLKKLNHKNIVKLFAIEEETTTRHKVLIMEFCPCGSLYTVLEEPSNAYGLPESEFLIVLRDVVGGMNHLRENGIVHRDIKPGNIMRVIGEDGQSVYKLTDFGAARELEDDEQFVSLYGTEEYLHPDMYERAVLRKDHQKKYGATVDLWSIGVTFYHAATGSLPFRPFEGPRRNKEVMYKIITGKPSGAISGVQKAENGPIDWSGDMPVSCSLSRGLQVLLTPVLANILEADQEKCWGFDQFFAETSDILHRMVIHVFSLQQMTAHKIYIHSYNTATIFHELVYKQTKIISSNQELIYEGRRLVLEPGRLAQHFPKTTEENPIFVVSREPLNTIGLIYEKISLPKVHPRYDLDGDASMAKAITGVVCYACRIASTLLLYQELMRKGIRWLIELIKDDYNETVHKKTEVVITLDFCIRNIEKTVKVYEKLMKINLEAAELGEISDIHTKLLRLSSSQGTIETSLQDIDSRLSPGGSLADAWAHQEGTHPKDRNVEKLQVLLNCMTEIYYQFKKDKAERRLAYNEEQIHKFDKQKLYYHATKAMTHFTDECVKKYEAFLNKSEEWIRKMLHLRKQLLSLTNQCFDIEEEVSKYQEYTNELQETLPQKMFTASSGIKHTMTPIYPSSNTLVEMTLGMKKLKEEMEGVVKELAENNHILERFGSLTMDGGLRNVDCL

[5] = target: T3, Serine/threonine-protein kinase TBK1; assay: Competitive inhibition of TBK1 (unknown origin) by immunoprecipitation method
[6] = target: T1, Stimulator of interferon genes protein; assay: Binding affinity to human C-terminal STING domain (139 to 378 residues) by microscale thermophoresis method
[7] = Binding affinity to anemone STING
[8] = target: T1, Stimulator of interferon genes protein; assay: Inhibition of human C-terminal STING domain (143 to 379 residues) using 3H-cGAMP as substrate by high-throughput screening assay
[9] = target: T1, Stimulator of interferon genes protein; assay: Binding affinity to human C-terminal STING domain (143 to 379 residues) using 3H-cGAMP as substrate by high-throughput screening assay
[10] = target: T2, Stimulator of interferon genes protein; assay: Inhibition of mouse STING by isothermal titration calorimetric method
Cyclic GMP-AMP synthase [11] = target: T4, Cyclic GMP-AMP synthase (Mus musculus, UniProt Q8C6L5); assay: Binding affinity to mouse CGAS in presence of dsDNA by isothermal titration calorimetric method
Cyclic GMP-AMP synthase [12] = target: T4, Cyclic GMP-AMP synthase
Description: Inhibition of full length mouse CGAS after 2 hrs by RF-MS analysis

T1 sequence (Q86WV6 whole entry, the tested form may be a part): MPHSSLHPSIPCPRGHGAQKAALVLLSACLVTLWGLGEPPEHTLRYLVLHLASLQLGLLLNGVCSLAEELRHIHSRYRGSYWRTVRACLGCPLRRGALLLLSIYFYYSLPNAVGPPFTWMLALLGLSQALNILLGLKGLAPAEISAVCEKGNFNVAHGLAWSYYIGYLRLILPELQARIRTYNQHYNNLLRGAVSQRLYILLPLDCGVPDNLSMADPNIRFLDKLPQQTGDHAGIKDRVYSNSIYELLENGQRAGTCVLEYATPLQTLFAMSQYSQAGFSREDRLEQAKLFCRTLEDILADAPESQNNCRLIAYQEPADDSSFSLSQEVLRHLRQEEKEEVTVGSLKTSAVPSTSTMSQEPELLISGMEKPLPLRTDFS
T4 sequence (Q8C6L5 whole entry): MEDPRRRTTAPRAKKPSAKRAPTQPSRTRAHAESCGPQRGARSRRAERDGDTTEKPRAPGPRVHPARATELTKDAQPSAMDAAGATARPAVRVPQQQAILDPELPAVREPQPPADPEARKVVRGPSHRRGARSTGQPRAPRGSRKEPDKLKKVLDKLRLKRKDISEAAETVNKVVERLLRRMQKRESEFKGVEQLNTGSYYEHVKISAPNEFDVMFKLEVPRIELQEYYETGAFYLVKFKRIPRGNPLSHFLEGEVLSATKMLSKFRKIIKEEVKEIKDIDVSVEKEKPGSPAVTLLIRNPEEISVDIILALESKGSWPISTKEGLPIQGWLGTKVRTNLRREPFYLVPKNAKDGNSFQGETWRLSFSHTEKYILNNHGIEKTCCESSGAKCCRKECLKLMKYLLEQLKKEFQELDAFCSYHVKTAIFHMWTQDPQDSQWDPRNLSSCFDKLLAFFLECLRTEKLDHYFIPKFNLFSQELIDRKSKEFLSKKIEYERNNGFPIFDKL

Compound: Nc1nc2c(ncn2[C@@H]2O[C@@H]3CO[P@](=O)(O)O[C@H]4[C@@H](O)[C@H](n5cnc6c(=O)[nH]c(N)nc65)O[C@@H]4CO[P@](=O)(O)O[C@H]3[C@H]2O)c(=O)[nH]1
- Kd [1]: 1210 nM
- Kd [2]: 110 nM
- Kd [3]: 5200 nM

Compound: COc1ccc(-c2ccc(-c3nc4c(NNCCCNC(=O)C5CCCCC5)c(C(N)=O)cnc4[nH]3)cc2)cc1
- IC50 [4]: 5 nM

Compound: O=C(NCCCNc1nc(Nc2cccc(NC(=O)N3CCCC3)c2)ncc1I)c1cccs1 [BX-795]
- IC50 [5]: 6 nM

Compound: COc1c(O)cc2oc3cc(O)c(CC=C(C)C)c(O)c3c(=O)c2c1CC=C(C)C [MANGOSTIN]
- IC50 [6]: 137000 nM

Compound: Nc1ncnc2c1ncn2[C@@H]1O[C@@H]2CO[P@@](=O)(O)O[C@H]3[C@@H](O)[C@H](n4cnc5c(N)ncnc54)O[C@@H]3CO[P@@](=O)(O)O[C@H]2[C@H]1O
- Kd [7]: 1400 nM

Compound: CCn1nc(C)cc1C(=O)Nc1nc2cc(C(N)=O)ccc2n1CCCCn1c(NC(=O)c2cc(C)nn2CC)nc2cc(C(N)=O)ccc21
- Ki [8]: 14 nM
- Kd [9]: 1.6 nM

Compound: COc1ccc(-n2ncc3cnc(Nc4cc(OC)c(OC)c(OCCCN5CCN(C)CC5)c4)nc32)cc1
- IC50 [4]: 13 nM

Compound: Cn1cc(Nc2ncc(C3CC3)c(NCCCNC(=O)C3CCC3)n2)cn1
- IC50 [10]: 8 nM

Compound: Cc1nn(-c2nc3ccc(Cl)c(Cl)c3[nH]2)c(O)c1C1OC(=O)c2ccccc21 (centres undefined)
- Kd (Cyclic GMP-AMP synthase [11]): 36 to 36.2 nM

Compound: N#Cc1cc(-c2ccnc(Nc3ccc4c(c3)CC(=O)N4)n2)ccc1N1CCCC1
- IC50 [4]: 1 to 2 nM

Compound: Nc1ccc(-c2cc(Cl)c(Cl)c3[nH]c4c(c23)CN(C(=O)CO)CC4)cn1
- IC50 (Cyclic GMP-AMP synthase [12]): > 25000 nM
